In patent US20180186769A1, “6-AMINO-5-FLUORO-5-(FLUOROMETHYL)-2,3,4,5-TETRAHYDROPYRIDIN-2-YL-PHENYL-5-(METHOXY-D3)-PYRAZINE-2-CARBOXAMIDES AND FLUORINATED DERIVATIVES THEREOF AS BACE1 INHIBITORS” (H. Lundbeck A/S, priority 2016, published 2018):

What was measured:
[1] = Clearance in microsomes, human; assay type: in vitro ADME; details: 1 microM, read-out: CLint, Human (L/h/kg) ± SD (converted)
Source text: Deuterated compounds were compared to their non-deuterated parent counterparts to determine the impact of deuteration on clearance results

[2] = target: BACE1 (Homo sapiens, UniProt P56817); test: BACE1 efficacy assay (FRET-based); assay type: biochemical; design: purchased Life Technologies P2985; details: 10 μM test compound
Chain of BACE1 (P56817 46-501): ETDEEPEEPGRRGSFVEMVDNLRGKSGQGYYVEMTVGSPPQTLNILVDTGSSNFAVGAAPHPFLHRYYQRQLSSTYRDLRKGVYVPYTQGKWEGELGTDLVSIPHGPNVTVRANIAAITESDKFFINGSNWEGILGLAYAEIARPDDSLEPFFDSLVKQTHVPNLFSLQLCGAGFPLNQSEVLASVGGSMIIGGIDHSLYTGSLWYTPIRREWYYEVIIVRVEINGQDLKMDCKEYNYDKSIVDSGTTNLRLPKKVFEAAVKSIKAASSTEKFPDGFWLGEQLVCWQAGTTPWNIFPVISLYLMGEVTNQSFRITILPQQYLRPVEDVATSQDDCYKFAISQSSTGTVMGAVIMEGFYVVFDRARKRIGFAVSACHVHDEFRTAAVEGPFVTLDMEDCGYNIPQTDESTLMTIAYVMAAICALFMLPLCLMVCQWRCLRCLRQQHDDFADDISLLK
Protocol: The efficacy assay was performed as a FRET-based assay using a commercially available BACE1 kit (Life Technologies, P2985). 2 μl test compound at 10 μM (final concentration) and 15 μl BACE1 enzyme from the kit (final concentration 3 nM) were preincubated for 15 minutes at room temperature before addition of 15 μl of substrate from the kit (250 nM final concentration) and incubated for additional 90 minutes at room temperature. The assay plate was subsequently read in a Pherastar (Ex540/Em590). The enzyme activity observed in presence of test compound were normalized to the enzyme activity observed in presence of buffer and 10 μM (final concentration) of the high affinity BACE1 reference inhibitor (S)-6-[3-Chloro-5-(5-prop-1-ynyl-pyridin-3-yl)-thiophen-2-yl]-2-imino-3,6-dimethyl-tetrahydropyrimidin-4-one, respectively. The efficacy of the test compounds was evaluated at 10 μM (final concentration) and defined as the percent inhibition of the enzyme activity using the equation % inhibition=100%−normalized enzyme activity in percent.

[3] = tested on: Aβ40; test: Aβ levels in rat brain and plasma following BACE1 inhibition (Aβ40 ELISA); assay type: in vivo, Sprague Dawley rats; details: p.o.
Protocol: Assessment of […] in rat brain and plasma following BACE1 inhibition.
Young adult Male Sprague Dawley rats of approximately 250 g weight were purchased from Charles River and received vehicle (2.5% HP betaCD+1M MeSO4, pH 2.5) or 0-40 mg/kg of test compounds (dissolved in vehicle) by oral gavage (p.o). The compounds are dosed at a volume of 5 ml/kg. Cohorts of 5-10 animals were established for each treatment condition.
Studies were set up as acute dose response treatment studies were samples were taken at T=180 minutes after initial dosing, or as 12 h or 24 h timecourse treatment studies. At the end of the test period, the animals were stunned and decapitated with a guillotine. Trunk-blood was sampled in EDTA coated tubes after decapitation of the animal. The blood was centrifuged at 2200G at 4° C. for 15 minutes and the plasma was collected and frozen at −80° C. The blood was aliquoted for Aβ ELISA and DMPK analysis. Immediately following sacrifice, the brain was extracted and split into 2 halves. The left half was dissected; with the front forebrain taken for Aβ ELISA and the remainder used for DMPK analysis. These samples were also snap frozen on dry ice and stored at −80° C. until use for analysis. The right hemibrains were snap frozen on dry ice and stored at −80° C. for independent confirmatory Aβ ELISA evalution.
The cortex samples were thawed slightly on wet ice before they were homogenized with a small volume dispersing instrument (T10 basic ULTRA-TURRAX®) which was set at speed 5 for approximately 5-7 sec. The tissue was processed in a 10 times volume of the weight, for example 100 mg of tissue was homogenized in […] of Homogenization buffer. Homogenization buffer: 50 ml Milli Q water+[…]+0.2% Diethylamin (DEA)+1 tablet of Complete Protease inhibitor cocktail+[…] 4-(2-aminoethyl) benzenesulfonyl fluoride hydrochloride irreversible serine protease inhibitor (AEBSF).
After homogenization 450 μL aliquots of the samples are collected into a 1.5 ml Eppendorf tube and placed on wet ice, 0.5% NP-40 (50 ul) was added to all samples and then they were incubated on ice for 30 min. After which all samples were sonicated using an Ultrasonic homogenizer with 20 kHz homogeneous sound (SONOPLUS HD2070, Bandelin Electronic) 10 pulse set at 12-13% power to extract all the Aβ species. The samples were then centrifuged (Ole Dich 157 MPRF Micro centrifuge) at 20000G for 20 minutes at 4° C. After centrifugation […] of the supernatant was pipetted into 600 μL microtubes tubes and neutralized with 15 µL of 1M Tris-HCL buffer.
WAKO 294-62501 Human/Rat Abeta amyloid-40 kit was used for all ELISA analyses. 30 μL plasma samples or 30 μL of the cortex supernatants generated as described above were placed in 600 μL microtubes tubes on wet ice. To this 30 μL of 8M Urea (AppliChem A1049, 9025) are added to generate a 2-fold dilution. Both plasma and cortex supernatants are incubated on ice for 30 min. Standard rows were prepared from the standard peptide stock provided in the kit and standard diluent containing 1.6M Urea (200 μL 8M Urea+800 μL of standard diluent) and 0.8M Urea (400 μL 8M Urea+[…] Standard diluent). A serial 2-fold dilution of Aβ40 from 100 pmol/ml to 0 pmol/L was prepared for the assay.
After incubation with urea, all samples were further diluted by addition of 5 times standard diluent from the Kit. This was done by adding 240 μL Standard Diluent to 60 μL sample/urea mixture, which was then mixed well. 100 μL of each diluted sample was pipetted into designated wells of the ELISA plate in duplicates. The plate was then covered and incubated overnight at 4° C. The following day, the ELISA kit was brought to room temperature before use. The incubated plate was washed 5 times with the 20× washing solution diluted in Milli Q water. 100 μL HRP-conjugate was applied to each well, and the plate was covered and incubates at 4° C. for 1 hr. The wash was repeated again for 5 times. […]

With `[2H]C([2H])([2H])Oc1cnc(C(=O)Nc2ccc(F)c([C@]3(C)CC[C@@](F)(CF)C(N)=N3)c2)cn1` [Example 1, N-(3-((2S,5S)-6-amino-5-fluoro-5-(fluoromethyl)-2-methyl-2,3,4,5-tetrahydropyridin-2-yl)-4-fluorophenyl)-5-(methoxy-d3)pyrazine-2-carboxamide] the CLint scaled at 1 µM [1] was 0.2 L/h/kg, the inhibition at 10 µM [2] was 100% and the “Aβ40 reduction (%) brain” value ([3]; 10 mg/kg, 0.5 h) was −0.3%. The “Aβ40 reduction (%) plasma” value ([3]; 10 mg/kg, 0.5 h) was −0.4%, the “Aβ40 reduction (%) brain” value ([3]; 10 mg/kg, 1 h) was 17.2% and the “Aβ40 reduction (%) plasma” value ([3]; 10 mg/kg, 1 h) was 29.5%. The “Aβ40 reduction (%) brain” value ([3]; 10 mg/kg, 3 h) was 38.3%, the “Aβ40 reduction (%) plasma” value ([3]; 10 mg/kg, 3 h) was 21.7% and the “Aβ40 reduction (%) brain” value ([3]; 10 mg/kg, 6 h) was 39.4%. The “Aβ40 reduction (%) plasma” value ([3]; 10 mg/kg, 6 h) was 15.5%, the “Aβ40 reduction (%) brain” value ([3]; 10 mg/kg, 12 h) was 13.7% and the “Aβ40 reduction (%) plasma” value ([3]; 10 mg/kg, 12 h) was 20.7%. For the same compound, the “Aβ40 reduction (%) brain” value ([3]; 20 mg/kg, 0.5 h) was 14.7%, the “Aβ40 reduction (%) plasma” value ([3]; 20 mg/kg, 0.5 h) was 36.5% and the “Aβ40 reduction (%) brain” value ([3]; 20 mg/kg, 1 h) was 29.7%. The “Aβ40 reduction (%) plasma” value ([3]; 20 mg/kg, 1 h) was 41.4%, the “Aβ40 reduction (%) brain” value ([3]; 20 mg/kg, 3 h) was 38.5% and the “Aβ40 reduction (%) plasma” value ([3]; 20 mg/kg, 3 h) was 34.5%. The “Aβ40 reduction (%) brain” value ([3]; 20 mg/kg, 6 h) was 42.6%, the “Aβ40 reduction (%) plasma” value ([3]; 20 mg/kg, 6 h) was 36.9% and the “Aβ40 reduction (%) brain” value ([3]; 20 mg/kg, 12 h) was 34.5%. For the same compound, the “Aβ40 reduction (%) plasma” value ([3]; 20 mg/kg, 12 h) was 41.3%, the “Aβ40 reduction (%) brain” value ([3]; 40 mg/kg, 0.5 h) was 39.8% and the “Aβ40 reduction (%) plasma” value ([3]; 40 mg/kg, 0.5 h) was 43.0%. For the same compound, the “Aβ40 reduction (%) brain” value ([3]; 40 mg/kg, 1 h) was 43.9%, the “Aβ40 reduction (%) plasma” value ([3]; 40 mg/kg, 1 h) was 47.8% and the “Aβ40 reduction (%) brain” value ([3]; 40 mg/kg, 3 h) was 50.6%. For the same compound, the “Aβ40 reduction (%) plasma” value ([3]; 40 mg/kg, 3 h) was 47.1%, the “Aβ40 reduction (%) brain” value ([3]; 40 mg/kg, 6 h) was 59.5% and the “Aβ40 reduction (%) plasma” value ([3]; 40 mg/kg, 6 h) was 49.9%. For the same compound, the “Aβ40 reduction (%) brain” value ([3]; 40 mg/kg, 12 h) was 57.7% and the “Aβ40 reduction (%) plasma” value ([3]; 40 mg/kg, 12 h) was 41.5%.
